“Also recorded” adds a separate entry of the source. Peptide text beside a SMILES is read from it.
Tests used:
[1] = in vivo; cited from earlier work
male runners [2] = assay: Dynavision D2 visual, motor and physical reaction time to a visual stimulus; format: in vivo, human; details: between groups
Procedure: The testing protocol is depicted in FIG. 1. Data collection occurred on four separate occasions. Each session required participants to perform a 60-min run at 75% of their previously measured VO2max. Following this run, all participants performed a run at 90% of their VO2max until volitional exhaustion. All participants performed their first trial (DHY) without any rehydration. During this session the total weight lost during the trial was determined. The fluid loss that occurred during this session was then used to determine the participant's swear rate (L·hr^−1). To continue in the study, participant's sweat rate was or exceeded 1.3 L·hr^−1. […] The first assessment measured the participant's visual, motor, and physical reaction time to a stimulus with the dominant hand. […] Visual reaction time was determined as the amount of time from identifying the stimulus and initiating a reaction by leaving the home button. Motor response time was determined by the time (measured in 1/100's of a second) it took to physically strike the stimulus following the initial visual reaction and was measured as the amount of time from the hand leaving the home button and striking the stimulus. Physical reaction time was determined by the total elapsed time from the introduction of the target stimulus to the physical completion of the task (returning to the home button after striking the stimulus). […]

male runners [3] = assay: Multiple object tracking (CAVE, NeuroTracker); format: in vivo, human; details: for NeuroTracker Δ, group mean: Post-Pre
Procedure: The testing protocol is depicted in FIG. 1. Data collection occurred on four separate occasions. Each session required participants to perform a 60-min run at 75% of their previously measured VO2max. Following this run, all participants performed a run at 90% of their VO2max until volitional exhaustion. All participants performed their first trial (DHY) without any rehydration. During this session the total weight lost during the trial was determined. The fluid loss that occurred during this session was then used to determine the participant's swear rate (L·hr^−1). To continue in the study, participant's sweat rate was or exceeded 1.3 L·hr^−1. During the next three trails participants were provided 250 ml of fluid every 15 minutes in equal amounts. During one of the trials participants consumed only a flavored sports drink (ELECT only), while during the other trials participants consumed the alanine-glutamine supplement (Sustamine™) mixed in the same flavored sports drink at either a low (LD: 300 mg per 500 ml) or high (HD: 1 g per 500 ml) dose. Visual optical tracking was assessed using a Cave Automatic Virtual Environment (CAVE) system. The CAVE is a 2.4 m×2.4 m×2.4 m room that includes a frontal canvas projection wall which served as surfaces for image projection. Four high-resolution projectors were synchronized, and the image was projected onto the front screen. Participants tracked 4 of 8 objects that moved in a three-dimensional plane. Velocity of movement began at a slow tracking speed and progressed on the performance of the individual participant. Each participant performed 10 trials. During each trial participants wore 3-dimensional glasses. The velocity of movement that was most successful was recorded. Additionally, to make inferences on true effects of the different trials on reaction performance, an analysis based on the magnitude of differences, calculated from 90% confidence intervals, as previously described by Batterham and Hopkins (2005), was used in this study. Differences in Post-Pre performance (Δresponse) between trials were analyzed via a published spreadsheet (Hopkins 2007), with the smallest non-trivial change set at 20% of the grand standard deviation (Batterham and Hopkins 2005). All data are expressed as a mean effect±SD, with percent chances of a beneficial, trivial or negative outcome. Qualitative inferences, based on quantitative chances were assessed as: <1% almost certainly not, 1-5% very unlikely, 5-25% unlikely, 25-75% possibly, 75-95% likely, 95-99% very likely and >99% almost certainly (Hopkins 2002).

C[C@H](N)C(=O)N[C@@H](CCC(N)=O)C(=O)O [L-Alanyl-L-Glutamine] (H-Ala-Gln-OH)
degradation in the body [1]: immediately degraded into alanine and glutamine in the body
change in visual, motor and physical reaction times to a visual stimulus (male runners [2]): No significant differences were noted between groups
NeuroTracker Δ, Interpretation (male runners [3]; Dehydration vs High Dose): Unclear
NeuroTracker Δ, Mean Difference (male runners [3]; Dehydration vs High Dose): −0.06
NeuroTracker Δ, Percent Negative (male runners [3]; Dehydration vs High Dose): 37.20%
NeuroTracker Δ, Percent Positive (male runners [3]; Dehydration vs High Dose): 12.32%
NeuroTracker Δ, Percent Trivial (male runners [3]; Dehydration vs High Dose): 50.47%
NeuroTracker Δ, Interpretation (male runners [3]; Dehydration vs Low Dose): Unclear
NeuroTracker Δ, Mean Difference (male runners [3]; Dehydration vs Low Dose): 0.008
NeuroTracker Δ, Percent Negative (male runners [3]; Dehydration vs Low Dose): 21.19%
NeuroTracker Δ, Percent Positive (male runners [3]; Dehydration vs Low Dose): 24.48%
NeuroTracker Δ, Percent Trivial (male runners [3]; Dehydration vs Low Dose): 54.33%
NeuroTracker Δ, Interpretation (male runners [3]; Gatorade vs High Dose): likely maintain or improve their scores more so than when they consumed the electrolyte drink only; also recorded: Likely
NeuroTracker Δ, Mean Difference (male runners [3]; Gatorade vs High Dose): −0.23
NeuroTracker Δ, Percent Negative (male runners [3]; Gatorade vs High Dose): 85.10%
NeuroTracker Δ, Percent Positive (male runners [3]; Gatorade vs High Dose): 0.44%
NeuroTracker Δ, Percent Trivial (male runners [3]; Gatorade vs High Dose): 14.46%
NeuroTracker Δ, group mean (male runners [3]; High Dose (1 g per 500 ml)): 0.201
NeuroTracker Δ, group mean (male runners [3]; Low Dose (300 mg per 500 ml)): 0.132
NeuroTracker Δ, Interpretation (male runners [3]; Low Dose vs Gatorade): Possibly
NeuroTracker Δ, Mean Difference (male runners [3]; Low Dose vs Gatorade): 0.17
NeuroTracker Δ, Percent Negative (male runners [3]; Low Dose vs Gatorade): 4.42%
NeuroTracker Δ, Percent Positive (male runners [3]; Low Dose vs Gatorade): 64.40%
NeuroTracker Δ, Percent Trivial (male runners [3]; Low Dose vs Gatorade): 31.18%
NeuroTracker Δ, Interpretation (male runners [3]; Low Dose vs High Dose): Possibly
NeuroTracker Δ, Mean Difference (male runners [3]; Low Dose vs High Dose): 0.069
NeuroTracker Δ, Percent Negative (male runners [3]; Low Dose vs High Dose): 26.72%
NeuroTracker Δ, Percent Positive (male runners [3]; Low Dose vs High Dose): 0.45%
NeuroTracker Δ, Percent Trivial (male runners [3]; Low Dose vs High Dose): 72.83%
changes in multiple object tracking (male runners [3]; between trials): No significant differences were noted between trials
